In US10202361B2, “Pyridazinones as herbicides” (E I DU PONT DE NEMOURS AND COMPANY, priority 2014, dated 2019):

What was measured:
Test in all cases: Test E pre-/postemergence greenhouse herbicide test
Type in all cases: in vivo
Details in all cases: Preemergence, scale 0 to 100
[1] = system: beggarticks (hairy beggarticks, Bidens pilosa)
Outline: (§1)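 Formulated test chemical (solvent mixture with surfactant) is applied preemergence to seeded silt loam and postemergence to plants at 1- to 4-leaf stage grown in peat-based medium. Greenhouse holding 14 to 21 d; response scored visually, 0 no effect to 100 complete control.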

[2] = system: corn (Zea mays)
Outline: as §1

[3] = system: crabgrass, Brazil (Brazilian crabgrass, Digitaria horizontalis)
Outline: as §1

[4] = system: foxtail, giant (giant foxtail, Setaria faberii)
Outline: as §1

[5] = system: foxtail, green (green foxtail, Setaria viridis)
Outline: as §1

[6] = system: johnsongrass (Sorghum halepense)
Outline: as §1

[7] = system: kochia (Kochia scoparia)
Outline: as §1

[8] = system: lambsquarters (Chenopodium album)
Outline: as §1

[9] = system: morningglory (Ipomoea coccinea)
Outline: as §1

[10] = system: panicum, fall (fall panicum, Panicum dichotomiflorum)
Outline: as §1

[11] = system: pigweed, palmer (palmer pigweed, Amaranthus palmeri)
Outline: as §1

[12] = system: ragweed (common ragweed, Ambrosia elatior)
Outline: as §1

[13] = system: ryegrass, Italian (Italian ryegrass, Lolium multiflorum)
Outline: as §1

[14] = system: soybean (Glycine max)
Outline: as §1

[15] = system: velvetleaf (Abutilon theophrasti)
Outline: as §1

[16] = system: waterhemp (common waterhemp, Amaranthus rudis)
Outline: as §1

CCOc1cc(=O)n(-c2ccc(F)cc2)nc1Cc1ccnc(C(F)(F)F)c1 [Compound 25, 5-ethoxy-2-(4-fluorophenyl)-6-[[2-(trifluoromethyl)-4-pyridinyl]methyl]-3 (2H)-pyridazinone]
Plant response rating: Beggarticks ([1]; 8 g ai/ha): 0 | Plant response rating: Beggarticks ([1]; 16 g ai/ha): 0 | Plant response rating: Beggarticks ([1]; 31 g ai/ha): 0 | Plant response rating: Beggarticks ([1]; 62 g ai/ha): 0 | Plant response rating: Beggarticks ([1]; 125 g ai/ha): 15 | Plant response rating: Corn ([2]; 8 g ai/ha): 0 | Plant response rating: Corn ([2]; 16 g ai/ha): 10 | Plant response rating: Corn ([2]; 31 g ai/ha): 25 | Plant response rating: Corn ([2]; 62 g ai/ha): 40 | Plant response rating: Corn ([2]; 125 g ai/ha): 35 | Plant response rating: Crabgrass, Brazil ([3]; 8 g ai/ha): 0 | Plant response rating: Crabgrass, Brazil ([3]; 16 g ai/ha): 75 | Plant response rating: Crabgrass, Brazil ([3]; 31 g ai/ha): 98 | Plant response rating: Crabgrass, Brazil ([3]; 62 g ai/ha): 100 | Plant response rating: Crabgrass, Brazil ([3]; 125 g ai/ha): 100 | Plant response rating: Foxtail, Giant ([4]; 8 g ai/ha): 0 | Plant response rating: Foxtail, Giant ([4]; 16 g ai/ha): 0 | Plant response rating: Foxtail, Giant ([4]; 31 g ai/ha): 0 | Plant response rating: Foxtail, Giant ([4]; 62 g ai/ha): 5 | Plant response rating: Foxtail, Giant ([4]; 125 g ai/ha): 20 | Plant response rating: Foxtail, Green ([5]; 8 g ai/ha): 0 | Plant response rating: Foxtail, Green ([5]; 16 g ai/ha): 5 | Plant response rating: Foxtail, Green ([5]; 31 g ai/ha): 35 | Plant response rating: Foxtail, Green ([5]; 62 g ai/ha): 90 | Plant response rating: Foxtail, Green ([5]; 125 g ai/ha): 100 | Plant response rating: Johnsongrass ([6]; 8 g ai/ha): 0 | Plant response rating: Johnsongrass ([6]; 16 g ai/ha): 0 | Plant response rating: Johnsongrass ([6]; 31 g ai/ha): 10 | Plant response rating: Johnsongrass ([6]; 62 g ai/ha): 35 | Plant response rating: Johnsongrass ([6]; 125 g ai/ha): 65 | Plant response rating: Kochia ([7]; 8 g ai/ha): 40 | Plant response rating: Kochia ([7]; 16 g ai/ha): 50 | Plant response rating: Kochia ([7]; 31 g ai/ha): 70 | Plant response rating: Kochia ([7]; 62 g ai/ha): 100 | Plant response rating: Kochia ([7]; 125 g ai/ha): 95 | Plant response rating: Lambsquarters ([8]; 8 g ai/ha): 65 | Plant response rating: Lambsquarters ([8]; 16 g ai/ha): 98 | Plant response rating: Lambsquarters ([8]; 31 g ai/ha): 100 | Plant response rating: Lambsquarters ([8]; 62 g ai/ha): 100 | Plant response rating: Lambsquarters ([8]; 125 g ai/ha): 100 | Plant response rating: Morningglory ([9]; 8 g ai/ha): 0 | Plant response rating: Morningglory ([9]; 16 g ai/ha): 0 | Plant response rating: Morningglory ([9]; 31 g ai/ha): 5 | Plant response rating: Morningglory ([9]; 62 g ai/ha): 50 | Plant response rating: Morningglory ([9]; 125 g ai/ha): 65 | Plant response rating: Panicum, Fall ([10]; 8 g ai/ha): 0 | Plant response rating: Panicum, Fall ([10]; 16 g ai/ha): 35 | Plant response rating: Panicum, Fall ([10]; 31 g ai/ha): 50 | Plant response rating: Panicum, Fall ([10]; 62 g ai/ha): 100 | Plant response rating: Panicum, Fall ([10]; 125 g ai/ha): 100 | Plant response rating: Pigweed, Palmer ([11]; 8 g ai/ha): 0 | Plant response rating: Pigweed, Palmer ([11]; 16 g ai/ha): 95 | Plant response rating: Pigweed, Palmer ([11]; 31 g ai/ha): 95 | Plant response rating: Pigweed, Palmer ([11]; 62 g ai/ha): 100 | Plant response rating: Pigweed, Palmer ([11]; 125 g ai/ha): 100 | Plant response rating: Ragweed ([12]; 8 g ai/ha): 0 | Plant response rating: Ragweed ([12]; 16 g ai/ha): 0 | Plant response rating: Ragweed ([12]; 31 g ai/ha): 0 | Plant response rating: Ragweed ([12]; 62 g ai/ha): 20 | Plant response rating: Ragweed ([12]; 125 g ai/ha): 50 | Plant response rating: Ryegrass, Italian ([13]; 8 g ai/ha): 0 | Plant response rating: Ryegrass, Italian ([13]; 16 g ai/ha): 30 | Plant response rating: Ryegrass, Italian ([13]; 31 g ai/ha): 30 | Plant response rating: Ryegrass, Italian ([13]; 62 g ai/ha): 40 | Plant response rating: Ryegrass, Italian ([13]; 125 g ai/ha): 50 | Plant response rating: Soybean ([14]; 8 g ai/ha): 0 | Plant response rating: Soybean ([14]; 16 g ai/ha): 0 | Plant response rating: Soybean ([14]; 31 g ai/ha): 0 | Plant response rating: Soybean ([14]; 62 g ai/ha): 20 | Plant response rating: Soybean ([14]; 125 g ai/ha): 30 | Plant response rating: Velvetleaf ([15]; 8 g ai/ha): 0 | Plant response rating: Velvetleaf ([15]; 16 g ai/ha): 20 | Plant response rating: Velvetleaf ([15]; 31 g ai/ha): 0 | Plant response rating: Velvetleaf ([15]; 62 g ai/ha): 30 | Plant response rating: Velvetleaf ([15]; 125 g ai/ha): 80 | Plant response rating: Waterhemp ([16]; 8 g ai/ha): 35 | Plant response rating: Waterhemp ([16]; 16 g ai/ha): 50 | Plant response rating: Waterhemp ([16]; 31 g ai/ha): 100 | Plant response rating: Waterhemp ([16]; 62 g ai/ha): 100 | Plant response rating: Waterhemp ([16]; 125 g ai/ha): 100
